The data set is described as follows: Human HepG2 cell viability assay in 384 well format. Particulars: HepG2 cells, read-out: Inhibition. The class given is toxicity, cell-based. The arrangement: dose 125 nL, time 70.5 hour; cytotoxicity at 70.5 h: concentration not given beside the values.

For `COC[C@@H]1CC[C@H]2[C@H](CCN2S(=O)(=O)c2cccc(F)c2)O1`, the cytotoxicity at 70.5 h was -5.66%. For `CC(C)NC(=O)CC1CC2(CCN(S(C)(=O)=O)CC2)c2ccccc21` (stereo not drawn), the cytotoxicity at 70.5 h turned out to be 3.25%. The result for `CCS(=O)(=O)N1CCC2(CC1)CC(CC(=O)NC1CC1)c1ccccc12` (stereo not drawn) reads 17.6%. Under `Cc1noc(C)c1CN1CCO[C@H]2CN(Cc3cccnc3)C[C@H]21` stands -4.34%; under `O=C(c1cocn1)N1C[C@H]2CCC[C@@]2(COCc2cccnc2)C1`, -1.51%.

Consider `COCCN1C[C@H]2[C@@H](C1)N(C(=O)CCc1ccccc1)CC[C@H]2OC`, for which the cytotoxicity at 70.5 h was -10.6%.

For the compound `COCCN1C[C@H]2[C@@H](C1)N(C(=O)c1cccc(OC)c1)CC[C@H]2OC`, the cytotoxicity at 70.5 h was -2.65%.

`CN1CC(=O)N(c2ccsc2)CC12CCN(C(=O)c1ccc[nH]1)C2` (stereo not drawn): the cytotoxicity at 70.5 h worked out at 8.85%. Under `COCC1CN(Cc2ccccn2)Cc2nn(C)cc21` (stereo not drawn) stands -7.74%; under `COC(=O)C1CCN(CC2(c3ccc(C)cn3)CCNCC2)CC1`, -2.35%; under `CCN(C(C)=O)C1CCN(c2nccc(CCC(F)(F)F)n2)C1` (stereo not drawn), -22.6%. Turning to `Cc1ccc(-n2nc(C)c3c2NC(=O)CC3c2cnc(N)s2)cc1` (stereo not drawn), the cytotoxicity at 70.5 h is -0.62%.

As for `Cc1c(C(=O)N2CCCC(C(=O)c3nccn3C)C2)c[nH]c(=O)c1C#N` (stereo not drawn), the cytotoxicity at 70.5 h is -7.06%.

For the compound `CCc1c(C(=O)N2CCN(C)[C@@H]3CS(=O)(=O)C[C@@H]32)[nH]c2ccccc12`, the cytotoxicity at 70.5 h was -0.756%.

As to `O=C(N[C@@H]1CCN(C(=O)C2CCOCC2)C[C@H]1O)c1ccccn1`, the cytotoxicity at 70.5 h was -4.74%. Under `c1csc(CCNc2nc(-c3ccncc3)nc3c2CCNCC3)c1` stands -6.1%.

Take `O=C(CCn1cccn1)N1CC[C@@H](c2ccc3ccccc3c2)[C@H](O)C1`: the cytotoxicity at 70.5 h worked out at 3.07%. The result for `Cc1ncc(CN2CCC3(CCCN(CC4CCC4)C3)C2)cn1` (stereo not drawn) reads -4.13%; that for `CN1CCN(Cc2nnc(C3CCN(C(CO)CO)CC3)n2C)CC1`, -23.4%. For `OCCc1cn(CC2CCCN(Cc3nccs3)C2)nn1` (stereo not drawn), the cytotoxicity at 70.5 h stood at 11.8%. Under `CN(C)C1(CNc2nccc(-c3cnn(C)c3)n2)CCSC1` (stereo not drawn) stands -0.261%. `COCCN1C(=O)[C@H]2CC[C@@H]1CN(C(=O)CCc1n[nH]c(C)c1C)C2`: the cytotoxicity at 70.5 h is -13.9%. Under `CCC[C@H]1CN(Cc2cscn2)C[C@@H]1NC(=O)C1(COC)CCC1` stands -4.5%. With `CCn1c(C2CCCN(S(=O)(=O)C3CC3)C2)nn(CCN(C)C)c1=O` (stereo not drawn), the cytotoxicity at 70.5 h worked out at 0.856%.

On to `CC(C)CN(Cc1ccccn1)Cc1ccccc1OCC(=O)O`, for which the cytotoxicity at 70.5 h is -9.42%. The result for `CCC[C@H]1CN(S(=O)(=O)c2ccc(CC)s2)C[C@@H]1N` reads 18.1%; that for `Cc1ccc(-c2noc([C@H](N)CC(C)C)n2)nn1`, 7.92%.

On to `NC(=O)c1ccc(-n2ccnc2C2CC2)cc1N1CCCC1`, for which the cytotoxicity at 70.5 h was -3.29%.

For the compound `COCc1noc(-c2ccc(N3CCCCC3CCCO)nc2)n1` (stereo not drawn), the cytotoxicity at 70.5 h was -3.48%. The result for `CCCn1c(C)c(CC(=O)N[C@H](C)C(=O)OC)c2c1CC(C)(C)CC2=O` reads -0.686%; that for `CCCc1nnc(C(=O)N(C)Cc2ccc(OC)cc2)o1`, -2.69%; that for `CN1CCC(c2n[nH]c(=O)n2CC2CCCCC2)CC1`, -8.59%. For the compound `Cn1ncc2c(NCCOCc3ccccc3)nc(C3CCCC3)nc21`, the cytotoxicity at 70.5 h is -3.35%. The result for `C[C@H]1CC[C@H](C(=O)N2CCC(n3cc(C4(O)CCCC4)nn3)CC2)CC1` reads -16.2%; that for `CSCCCNC(=O)C1CCC(=O)N(C2CCCC2)C1` (stereo not drawn), -3.06%; that for `O=C1CCCN1C1CCCN(CCn2cc(Cl)cn2)C1` (stereo not drawn), -26.9%. Under `O=C(CC1CCC1)N1CCCC(CO)(CC2CC2)C1` (stereo not drawn) stands -7.78%; under `CC(C)[C@@H]1CN(C(=O)c2ccsc2)C[C@H]1C(=O)O`, -6.74%. For the compound `Cc1cc(CN2CCC(C3CCN(CC(C)C)CC3)C2)[nH]n1` (stereo not drawn), the cytotoxicity at 70.5 h was -3.48%. Under `O=C(Cn1cccn1)N(CCO)CCSc1ccc(Cl)cc1` stands -11.6%; under `Cc1cc(C)c2c(NCc3nncn3C3CCCCC3)ncnc2n1`, -13.6%; under `CC(C)c1nccn1C(C)C(=O)NC1CCOCC1` (stereo not drawn), 2.76%. The result for `Cc1nccn1-c1ccc(N2CCC(N[C@H](C)C(C)C)CC2)cc1` reads 0.757%. The result for `CCNc1ncc(C(=O)N[C@H](C(N)=O)c2ccccc2)cn1` reads 24%; that for `COCCNc1nc(C)nc2c1CCN(C[C@H]1CC[C@@H](N)CC1)CC2`, 44.2%; that for `O=C(NCC(O)c1cccc(F)c1)C1CCN(C2CCCCC2)CC1` (stereo not drawn), -16.4%. For `CN(CCc1cn[nH]c1)Cc1nc(Cc2cccc(F)c2)no1`, the cytotoxicity at 70.5 h was determined as 19%.

For the compound `CCc1cc(N2CCN(c3cnccn3)CC2)n2nc(C)c(C)c2n1`, the cytotoxicity at 70.5 h came to 10.7%. The result for `COc1ccc(CCN2CC(c3nc(CSC)no3)CCC2=O)cc1` (stereo not drawn) reads -4.88%; that for `COC(=O)[C@@H](NC(=O)c1coc(COc2cccc(F)c2)n1)C(C)C`, 4.83%; that for `O=C1OCCN1Cc1cccc(F)c1C(F)(F)F`, -5.55%. The result for `CNc1ccc(Cl)cc1C(=O)N1CCC(Cn2cc(CN)nn2)CC1` reads 1.05%; that for `CO[C@H]1CNC[C@@H]1NC(=O)c1cc(C)nc2ccc(C)cc12`, 12.1%. Consider `COCCN1C[C@@H]2[C@@H](OC)CCN(C(=O)Cc3ccccc3)[C@@H]2C1`, for which the cytotoxicity at 70.5 h is -1.17%. For `Cc1ncoc1C(=O)N1C[C@H]2CCC[C@@]2(COCc2cccnc2)C1`, the cytotoxicity at 70.5 h came out at 3.21%.

Regarding `Cc1oncc1C(=O)NCc1cc(=O)n2c(n1)CN(C(C)C)CCC2`, the cytotoxicity at 70.5 h is -4.07%. The result for `CCCN1CCCn2c(nc(CNC(=O)c3cnoc3C)cc2=O)C1` reads 16.5%; that for `O=C(c1ccsc1)N1C[C@H]2CCC[C@@]2(COCc2cccnc2)C1`, 22.5%; that for `c1cnc(N2CCCC3(CCN(CC4CCOC4)CC3)C2)nc1` (stereo not drawn), 19%. The result for `O=c1cc(Cn2cncn2)nc2n1CCCN(Cc1ccc(F)cc1)C2` reads 0.75%. Under `Cn1ccnc1C(=O)N1CCC2(CC1)CC(Oc1cccnc1)CO2` (stereo not drawn) stands -9.75%; under `COCC1CN(CC2CC2)Cc2nn(CC3CC3)cc21` (stereo not drawn), 12.3%; under `CN1CCOCC2(CCCN(C(=O)c3ccccc3F)C2)C1` (stereo not drawn), 13.4%. As for `CN1CC(=O)N(c2ccsc2)CC12CCN(C(=O)c1cccn1C)C2` (stereo not drawn), the cytotoxicity at 70.5 h was -5.46%. Consider `CN1CC(=O)N(c2ccsc2)CC12CCN(C(=O)CC1CCCC1)C2` (stereo not drawn), for which the cytotoxicity at 70.5 h is -0.558%. Under `CN1CC(=O)N(c2cccc(F)c2)CC12CCN(CC1CCOCC1)C2` (stereo not drawn) stands 5.35%; under `Cc1ccc(N2CCC3(CCN(C(=O)c4ccccn4)CC3)CC2)nn1`, -5.97%; under `CN1CCNC(=O)C12CCN(Cc1ccco1)CC2`, -8.79%.

(Values after ChEMBL document CHEMBL3507680, “University of Dundee, Gates Library screen for HepG2 cell viability”.)
